Experimental findings from patent US20100317607A1, “USE OF COMPOUNDS FOR PREPARING ANTI-TUBERCULOSIS AGENTS” (INFECTIOUS DISEASE RESEARCH INSTITUTE, priority 2007, published 2010) are described below.

≈ marks a conversion by molar mass, not a printed value. Counter-ions that a name gives are not always drawn.

In the first assay the test system is H37Rv strain of M. tuberculosis. Nature of the assay: Alamar Blue Susceptibility Test (MABA). The conditions noted are these: Mycobacterium tuberculosis; H37Rv strain of M. tuberculosis; Alamar Blue; read-out: MABA (TB growth inhibition, colourimetric assay). The format is cell-based. For orientation: Alamar Blue is a resazurin reagent that responds to reducing activity.
As for `c1csc(CNc2nc(N3CCCCC3)nc3ccccc23)c1` [Compound 48, 2-(Piperidin-1-yl)-N-(thiophen-2-ylmethyl)quinazolin-4-amine], the MIC is less than 10 µM. The same measure, in the same setting: the result for `CC(C)(Nc1nc(N2CCCCC2)nc2ccccc12)c1ccccc1` [Compound 53, N-(2-Phenylpropan-2-yl)-2-(piperidin-1-yl)quinazolin-4-amine] reads less than 10 µM; that for `Cc1ccc(CNc2nc(NCc3ccc(C(F)(F)F)cc3)c3ccccc3n2)cc1` [Compound 79, N^4-(4-Trifluoromethylbenzyl)-N^2-(4-methylbenzyl)quinazoline-2,4-diamine], less than 10 µM. On the same count and under the same terms, the result for `Nc1nc(NCc2ccccc2)c2ccccc2n1` [compound 3, N^4-Benzylquinazoline-2,4-diamine, reference compound] reads 50 to 128 µM (≈ 12.5 to 32 µg/mL); that for `Clc1cccc2nc(N3CCCCC3)nc(NCc3ccccc3)c12` [Compound 107, N-Benzyl-5-chloro-2-(piperidin-1-yl)quinazolin-4-amine], 10 to 50 µM (≈ 3.53 to 17.6 µg/mL); that for `O=C(C1CCCCC1)N1CCN(c2nc(NCc3ccc(F)cc3)c3ccccc3n2)CC1` [Compound 203, Cyclohexyl(4-(4-(4-fluorobenzylamino)quinazolin-2-yl)piperazin-1-yl)methanone], 10 to 50 µM (≈ 4.48 to 22.4 µg/mL). Still for that read-out and setting: the value for `c1ccc(CNc2nc(N3CCCCCC3)nc3ccccc23)cc1` [Compound 197, 2-(Azepan-1-yl)-N-benzylquinazolin-4-amine] was 10 to 50 µM (≈ 3.32 to 16.6 µg/mL); that for `c1ccc(N2CCN(c3nc(N4CCCCC4)nc4ccccc34)CC2)cc1` [Compound 88, 4-(4-Phenylpiperazin-1-yl)-2-(piperidin-1-yl)quinazoline] was 50 to 128 µM (≈ 18.7 to 47.8 µg/mL); that for `CC(C)C(=O)N1CCN(c2nc(NCc3ccccc3)c3ccccc3n2)CC1` [Compound 56, 1-(4-(4-(Benzylamino)quinazolin-2-yl)piperazin-1-yl)-2-methylpropan-1-one] was 50 to 128 µM (≈ 19.5 to 49.9 µg/mL). Regarding `COc1cc2nc(N3CCCCC3)nc(NCc3ccccc3)c2cc1OC` [Compound 70, N-Benzyl-6,7-dimethoxy-2-(piperidin-1-yl)quinazolin-4-amine], the MIC lay in the range of 10 to 50 µM (≈ 3.78 to 18.9 µg/mL). Same read-out and setting: the value for `Fc1ccc(CNc2nc(N3CCCC3)nc3ncccc23)cc1` [Compound 173, N-(4-Fluorobenzyl)-2-(pyrrolidin-1-yl)pyrido[2,3-d]pyrimidin-4-amine] was 10 to 50 µM (≈ 3.23 to 16.2 µg/mL). In the case of `COc1cccc(CNc2nc(N3CCCCC3)nc3ccccc23)c1` [Compound 82, N-(3-Methoxybenzyl)-2-(piperidin-1-yl)quinazolin-4-amine hydrochloride], the MIC fell in the range of 10 to 50 µM. On to `Fc1ccc(CNc2nc(N3CCC(F)(F)CC3)nc3ccccc23)cc1` [Compound 137, 2-(4,4-Difluoropiperidin-1-yl)-N-(4-fluorobenzyl)quinazolin-4-amine], for which the MIC lay in the range of 10 to 50 µM (≈ 3.72 to 18.6 µg/mL).

For `CN(Cc1ccccc1)c1nc(NCc2ccccc2)c2ccccc2n1` [Compound 29, N^2,N^4-Dibenzyl-N^2-methylquinazoline-2,4-diamine], the MIC fell in the range of 10 to 50 µM (≈ 3.54 to 17.7 µg/mL).

Consider `c1ccc(C2CCN(c3nc(N4CCCCC4)nc4ccccc34)CC2)cc1` [Compound 90, 4-(4-Phenylpiperidin-1-yl)-2-(piperidin-1-yl)quinazoline], for which the MIC lay in the range of 10 to 50 µM (≈ 3.73 to 18.6 µg/mL). For `OC[C@H](Cc1ccccc1)Nc1nc(N2CCCCC2)nc2ccccc12` [Compound 143, (S)-3-Phenyl-2-(2-(piperidin-1-yl)quinazolin-4-ylamino)propan-1-ol hydrochloride], the MIC was 10 to 50 µM. Turning to `COC(=O)[C@@H](Nc1nc(N2CCCCC2)nc2ccccc12)c1ccccc1` [Compound 175, (S)-Methyl 2-phenyl-2-(2-(piperidin-1-yl)quinazolin-4-ylamino)acetate], the MIC was in the range of 10 to 50 µM (≈ 3.76 to 18.8 µg/mL). Regarding `Oc1ccc(CNc2nc(N3CCCCC3)nc3ccccc23)cc1` [Compound 164, 4-((2-(Piperidin-1-yl)quinazolin-4-ylamino)methyl)phenol], the MIC fell in the range of 10 to 50 µM (≈ 3.34 to 16.7 µg/mL).

In the case of `Fc1ccc(CNc2nc(NCc3cc4ccccc4s3)nc3ccccc23)cc1` [Compound 171, N^2-(Benzo[b]thiophen-2-ylmethyl)-N^4-(4-fluorobenzyl)quinazoline-2,4-diamine], the MIC was 10 to 50 µM (≈ 4.15 to 20.7 µg/mL). The same measure, in the same setting: the value for `CS(=O)(=O)c1ccc(CNc2nc(N3CCCCC3)nc3ccccc23)cc1` [Compound 94, N-(4-(Methylsulfonyl)benzyl)-2-(piperidin-1-yl)quinazolin-4-amine] was 10 to 50 µM (≈ 3.97 to 19.8 µg/mL). For `Fc1ccc(CNc2nc(N3CCN(Cc4ccccc4)CC3)nc3ccccc23)cc1` [Compound 201, 2-(4-Benzylpiperazin-1-yl)-N-(4-fluorobenzyl)quinazolin-4-amine], the MIC lay in the range of 10 to 50 µM (≈ 4.28 to 21.4 µg/mL). For the compound `c1ccc(C2(Nc3nc(N4CCCC4)nc4ccccc34)CC2)cc1` [Compound 123, N-(1-Phenylcyclopropyl)-2-(pyrrolidin-1-yl)quinazolin-4-amine], the MIC lay in the range of 10 to 50 µM (≈ 3.3 to 16.5 µg/mL). On to `COC[C@@H]1CCCN1c1nc(NCc2ccccc2)c2ccccc2n1` [Compound 178, (S)—N-Benzyl-2-(2-(methoxymethyl)pyrrolidin-1-yl)quinazolin-4-amine], for which the MIC was in the range of 50 to 128 µM (≈ 17.4 to 44.6 µg/mL). `CCC(CC)(Nc1nc(N2CCCCC2)nc2ccccc12)c1ccccc1` [Compound 138, N-(3-Phenylpentan-3-yl)-2-(piperidin-1-yl)quinazolin-4-amine]: the MIC is less than 10 µM.

In the case of `c1ccc2c(c1)CC(Nc1nc(N3CCCCC3)nc3ccccc13)C2` [Compound 86, N-(2,3-Dihydro-1H-inden-2-yl)-2-(piperidin-1-yl)quinazolin-4-amine hydrochloride], the MIC is 10 to 50 µM. Still for that read-out and setting: the result for `COCCNc1nc(NCc2ccc(F)cc2)c2ccccc2n1` [Compound 207, N^4-(4-Fluorobenzyl)-N^2-(2-methoxyethyl)quinazoline-2,4-diamine] reads 50 to 128 µM (≈ 16.3 to 41.8 µg/mL); that for `Fc1ccc(CNc2nc(N3CCOCC3)nc3ccccc23)cc1` [Compound 169, N-(4-Fluorobenzyl)-2-morpholinoquinazolin-4-amine], 10 to 50 µM (≈ 3.38 to 16.9 µg/mL); that for `COC(=O)[C@@H]1CCCN1c1nc(NCc2ccc(F)cc2)c2ccccc2n1` [Compound 200, (S)-Methyl 1-(4-(4-fluorobenzylamino)quinazolin-2-yl)pyrrolidine-2-carboxylate], 50 to 128 µM (≈ 19 to 48.7 µg/mL). Same read-out and setting: the value for `c1ccc2c(NCc3ccoc3)nc(N3CCCCC3)nc2c1` [Compound 190, N-(Furan-3-ylmethyl)-2-(piperidin-1-yl)quinazolin-4-amine] was 10 to 50 µM (≈ 3.08 to 15.4 µg/mL); that for `CC(C)(Cc1ccc(F)cc1)Nc1nc(N2CCCCC2)nc2ccccc12` [Compound 108, N-(1-(4-Fluorophenyl)-2-methylpropan-2-yl)-2-(piperidin-1-yl)quinazolin-4-amine] was 10 to 50 µM (≈ 3.78 to 18.9 µg/mL). Consider `FC1(F)CCN(c2nc(NCc3ccc(Cl)cc3)nc3ccccc23)CC1` [Compound 146, N-(4-Chlorobenzyl)-4-(4,4-difluoropiperidin-1-yl)quinazolin-2-amine hydrochloride], for which the MIC fell in the range of 10 to 50 µM. As to `c1ccc2c(c1)CCN(c1nc(N3CCCCC3)c3ccccc3n1)C2` [Compound 113, 2-(3,4-Dihydroisoquinolin-2(1H)-yl)-4-(piperidin-1-yl)quinazoline hydrochloride], the MIC lay within 10 to 50 µM.

The test system of another assay is non replicating phase of M. tuberculosis (H37Rv with a plasmid with an acetimidase promoter driving a luciferase gene). Nature of the assay: microbe, parasite or virus in culture. The format is cell-based. To be noted: Mycobacterium tuberculosis, non replicating M. tuberculosis H37Rv luciferase strain, read-out: LORA (TB growth inhibition, MIC).
Consider `c1csc(CNc2nc(N3CCCCC3)nc3ccccc23)c1` [Compound 48, 2-(Piperidin-1-yl)-N-(thiophen-2-ylmethyl)quinazolin-4-amine], for which the MIC lay in the range of 10 to 50 µM (≈ 3.24 to 16.2 µg/mL).

For `CC(C)(Nc1nc(N2CCCCC2)nc2ccccc12)c1ccccc1` [Compound 53, N-(2-Phenylpropan-2-yl)-2-(piperidin-1-yl)quinazolin-4-amine], the MIC was 10 to 50 µM (≈ 3.46 to 17.3 µg/mL).

For `Cc1ccc(CNc2nc(NCc3ccc(C(F)(F)F)cc3)c3ccccc3n2)cc1` [Compound 79, N^4-(4-Trifluoromethylbenzyl)-N^2-(4-methylbenzyl)quinazoline-2,4-diamine], the MIC lay within 10 to 50 µM (≈ 4.22 to 21.1 µg/mL).
